pIC50: −log10 of the molar value. Values joined by “and” are separate entries in the source; they are usually repeats but may differ in a detail not shown here. Equal values may be shown once.
System: 349418-098-R-PDC complex spheroid growth
Assay: Anticancer human tumor 349418-098-R-PDC patient-derived lung adenocarcinoma cell line growth inhibition [AhR]
Conditions: for viability, T/C: stronger effect = lower value
Text: Multicellular complex tumor spheroid response to aryl hydrocarbon receptor antagonists in combination with a variety of drugs and investigational agents in selected tumor cell lines
The current study was undertaken to assess response to aryl hydrocarbon receptor antagonists in combination with standard-of-care drugs and investigational agents in solid tumor complex spheroid models. Complex spheroids include a stromal component modeled by human endothelial cells (HUVEC) and fibroblasts modeled by human mesenchymal stem cells (MSCs). The concentration ranges selected for each drug and investigational agent were based upon clinically achievable concentrations if the clinical Cmax of the agent was known.
Compounds. The drugs and investigational agents: BAY 2416964 (NSC825713), GNF351 (NSC835774), CH-223191 (NSC835775), CPI-455 (NSC825282), aza-TdCyd (NSC777586), decitabine (NSC127716), belinostat (NSC758774), entinostat (NSC756642), pevonedistat (NSC761192), tazemetostat (NSC777109), talazoparib (NSC765396), olaparib (NSC753686), selinexor (NSC780203), nedisertib (M3814, NSC802822), bortezomib (NSC756655), venetoclax (NSC766270), doxorubicin (NSC123127), elimusertib (BAY189344, NSC800525), ceralasertib (AZD6738, NSC777638), TAK-243 (NSC785004), alisertib (NSC759677), etoposide (NSC141540), topotecan (NSC609699), eribulin (NSC707389), gemcitabine (NSC613327), carboplatin (NSC241240), cisplatin (NSC119875), and SN-38 (NSC673596) were obtained from the National Cancer Institute (NCI) Developmental Therapeutics Program Chemical Repository (32). The FDA-approved anticancer drug set is available from the Developmental Therapeutics Program at https://dtp.cancer.gov/organization/dscb/obtaining/available plates.htm. […] The stock solutions were prepared in dimethyl sulfoxide (DMSO, Sigma-Aldrich, St. Louis, MO, cat. D2650), except for the platinum compounds which were prepared in saline (Quality Biological, Gaithersburg, MD, cat. 114-055-101), at 800-fold the tested concentration and stored at -70 degrees C prior to their use. All drugs and investigational agents were tested over a range starting from a high concentration at or near the clinical Cmax and decreasing in half-log increments. If the clinical Cmax for an agent had not been determined, the highest concentration tested was 10 microM (Table 1).
Cell Culture. All cells were maintained in an incubator at 37 degrees C and 5% CO2 with 95% humidity. The PDC lines were cultured according to standard operating procedures established by the NCI PDMR (https://pdmr.cancer.gov). Briefly, all PDCs were thawed and cultured in Matrigel-coated flasks prepared with a working solution of 1X Ham's F-12 nutrient mix, without supplementation (Invitrogen, Waltham, MA, cat. 11765054), 100 U/mL penicillin-streptomycin (Invitrogen, cat. 15140122), and 2.5% Matrigel (Corning Inc., Corning, NY, cat. 354248) for the first three passages. All PDCs were cultured in complete DMEM/F-12 media containing advanced DMEM/F-12 (Invitrogen, cat. 12634028), 4.9% defined fetal bovine serum, heat inactivated (HyClone Laboratories Inc., Logan, UT, cat. SH30070.03HI), 389 ng/mL hydrocortisone (Sigma-Aldrich, cat. H4001), 9.7 ng/mL human EGF recombinant protein (Invitrogen, cat. PHG0313), 23.4 microg/mL adenine (Sigma-Aldrich, cat. A2786), 97.3 U/mL penicillin-streptomycin (Invitrogen, cat. 15140122), 1.9 mM L-glutamine (Invitrogen, cat. 25030081), and 9.7 microM Y-27632 dihydrochloride (Tocris Bioscience, Bristol, United Kingdom, cat. 1254). The PDCs were cultured in complete DMEM/F12 media without 10 microM Y-27632 dihydrochloride for at least two passages prior to the screen. The established cell lines NCI-H1341 and […] were cultured in DMEM/F-12, HEPES (Invitrogen, cat. 11330032), 5% defined fetal bovine serum (HyClone Laboratories Inc., cat. SH30070.03), ITS premix universal culture supplement [insulin (5 microg/mL), transferrin (5 microg/mL), and selenious acid (5 ng/mL)] […]

[1] = curve of first compound, second compound 0.1 µM
[2] = curve of first compound, second compound 0.316 µM
[3] = curve of first compound, second compound 1 µM
[4] = curve of first compound, second compound 3.16 µM
[5] = curve of first compound, second compound 10 µM
[6] = second compound 0.1 µM, first compound 0.0316 µM
[7] = second compound 0.1 µM, first compound 0.1 µM
[8] = second compound 0.1 µM, first compound 0.316 µM
[9] = second compound 0.1 µM, first compound 1 µM
[10] = second compound 0.316 µM, first compound 0.0316 µM
[11] = second compound 0.316 µM, first compound 0.1 µM
[12] = second compound 0.316 µM, first compound 0.316 µM
[13] = second compound 0.316 µM, first compound 1 µM
[14] = second compound 1 µM, first compound 0.0316 µM
[15] = second compound 1 µM, first compound 0.1 µM
[16] = second compound 1 µM, first compound 0.316 µM
[17] = second compound 1 µM, first compound 1 µM
[18] = second compound 3.16 µM, first compound 0.0316 µM
[19] = second compound 3.16 µM, first compound 0.1 µM
[20] = second compound 3.16 µM, first compound 0.316 µM
[21] = second compound 3.16 µM, first compound 1 µM
[22] = second compound 10 µM, first compound 0.0316 µM
[23] = second compound 10 µM, first compound 0.1 µM
[24] = second compound 10 µM, first compound 0.316 µM
[25] = second compound 10 µM, first compound 1 µM
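Note: spheroids exposed to agents for seven days before luminescence viability read.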
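Throughout, for viability, T/C: spheroids also contain HUVEC endothelial cells and human MSC stroma.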

## COc1ccc([C@@H](O)c2cc(-c3ncnc4cc(N5CCOCC5)ccc34)c(F)cc2Cl)nn1 + Cc1ccccc1N=Nc1ccc(NC(=O)c2ccnn2C)c(C)c1
[1]
  pIC50: 5.84
[2]
  pIC50: 6.09
[3]
  pIC50: 6.02
[4]
  pIC50: 6.11
[5]
  pIC50: 6.45
[6]
  viability, T/C: 96.9%
[7]
  viability, T/C: 102%
[8]
  viability, T/C: 76.2%
[9]
  viability, T/C: 62.8%
Second compound 0.1 µM, first compound 3.16 µM
  viability, T/C: 29.8%
Second compound 0.1 µM, first compound 10 µM
  viability, T/C: 11.7%
[10]
  viability, T/C: 76.4%
[11]
  viability, T/C: 99.5%
[12]
  viability, T/C: 63.1%
[13]
  viability, T/C: 47.3%
Second compound 0.316 µM, first compound 3.16 µM
  viability, T/C: 23.1%
Second compound 0.316 µM, first compound 10 µM
  viability, T/C: 11%
[14]
  viability, T/C: 74.1%
[15]
  viability, T/C: 91.7%
[16]
  viability, T/C: 81.6%
[17]
  viability, T/C: 45.5%
Second compound 1 µM, first compound 3.16 µM
  viability, T/C: 28.2%
Second compound 1 µM, first compound 10 µM
  viability, T/C: 12%
[18]
  viability, T/C: 73.8%
[19]
  viability, T/C: 77.2%
[20]
  viability, T/C: 58%
[21]
  viability, T/C: 49.4%
Second compound 3.16 µM, first compound 3.16 µM
  viability, T/C: 25.1%
Second compound 3.16 µM, first compound 10 µM
  viability, T/C: 12.7%
[22]
  viability, T/C: 63.2%
[23]
  viability, T/C: 45.6%
[24]
  viability, T/C: 58.6%
[25]
  viability, T/C: 31.9%
Second compound 10 µM, first compound 3.16 µM
  viability, T/C: 21.3%
Second compound 10 µM, first compound 10 µM
  viability, T/C: 10%

## O=C(C=Cn1cnc(-c2cc(C(F)(F)F)cc(C(F)(F)F)c2)n1)NNc1cnccn1 + Cc1cncc(-c2nc(NCCc3c[nH]c4ccccc34)c3ncn(C(C)C)c3n2)c1
[1]
  pIC50: 7.21
[2]
  pIC50: 7.10
[3]
  pIC50: 7.30
[4]
  pIC50: > 8.02
[5]
  pIC50: > 8.02
Second compound 0.1 µM, first compound 0.00949 µM
  viability, T/C: 109%
Second compound 0.1 µM, first compound 0.03 µM
  viability, T/C: 76.7%
Second compound 0.1 µM, first compound 0.0949 µM
  viability, T/C: 34.4%
Second compound 0.1 µM, first compound 0.3 µM
  viability, T/C: 10.9%
Second compound 0.1 µM, first compound 0.949 µM
  viability, T/C: 7.84%
Second compound 0.1 µM, first compound 3 µM
  viability, T/C: 4.75%
Second compound 0.316 µM, first compound 0.00949 µM
  viability, T/C: 103%
Second compound 0.316 µM, first compound 0.03 µM
  viability, T/C: 89.4%
Second compound 0.316 µM, first compound 0.0949 µM
  viability, T/C: 42.3%
Second compound 0.316 µM, first compound 0.3 µM
  viability, T/C: 11.7%
Second compound 0.316 µM, first compound 0.949 µM
  viability, T/C: 7.07%
Second compound 0.316 µM, first compound 3 µM
  viability, T/C: 4.9%
Second compound 1 µM, first compound 0.00949 µM
  viability, T/C: 95.8%
Second compound 1 µM, first compound 0.03 µM
  viability, T/C: 69.8%
Second compound 1 µM, first compound 0.0949 µM
  viability, T/C: 25.5%
Second compound 1 µM, first compound 0.3 µM
  viability, T/C: 9.9%
Second compound 1 µM, first compound 0.949 µM
  viability, T/C: 9.14%
Second compound 1 µM, first compound 3 µM
  viability, T/C: 5.61%
Second compound 3.16 µM, first compound 0.00949 µM
  viability, T/C: 31.8%
Second compound 3.16 µM, first compound 0.03 µM
  viability, T/C: 20.6%
Second compound 3.16 µM, first compound 0.0949 µM
  viability, T/C: 14.7%
Second compound 3.16 µM, first compound 0.3 µM
  viability, T/C: 8.17%
Second compound 3.16 µM, first compound 0.949 µM
  viability, T/C: 7.95%
Second compound 3.16 µM, first compound 3 µM
  viability, T/C: 5.5%
Second compound 10 µM, first compound 0.00949 µM
  viability, T/C: 3.16%
Second compound 10 µM, first compound 0.03 µM
  viability, T/C: 2.76%
Second compound 10 µM, first compound 0.0949 µM
  viability, T/C: 2.56%
Second compound 10 µM, first compound 0.3 µM
  viability, T/C: 2.42%
Second compound 10 µM, first compound 0.949 µM
  viability, T/C: 1.78%
Second compound 10 µM, first compound 3 µM
  viability, T/C: 1.96%

## O=C(C=Cc1cccc(S(=O)(=O)Nc2ccccc2)c1)NO
Compound 0.0316 µM
  viability, T/C: 81.9% and 112% and 124%
Compound 0.1 µM
  viability, T/C: 83.5% and 128% and 78%
Compound 0.316 µM
  viability, T/C: 60.7% and 73.3% and 78.8%
Compound 1 µM
  viability, T/C: 48.6% and 42.6% and 41.5%
Compound 3.16 µM
  viability, T/C: 13.1% and 11.2% and 10.6%
Compound 10 µM
  viability, T/C: 2.17% and 1.85% and 2.27%
Curve of compound
  pIC50: 6.14 and 6.18

## Nc1ncn(C2CC(O)C(CO)O2)c(=O)n1 (configuration not stated) + Cc1ccccc1N=Nc1ccc(NC(=O)c2ccnn2C)c(C)c1
[1]
  pIC50: 7.23
[2]
  pIC50: 7.18
[3]
  pIC50: 6.97
[4]
  pIC50: 7.17
[5]
  pIC50: 7.30
Second compound 0.1 µM, first compound 0.00316 µM
  viability, T/C: 97.8%
Second compound 0.1 µM, first compound 0.01 µM
  viability, T/C: 103%
[6]
  viability, T/C: 66.1%
[7]
  viability, T/C: 39.9%
[8]
  viability, T/C: 39.1%
[9]
  viability, T/C: 30%
Second compound 0.316 µM, first compound 0.00316 µM
  viability, T/C: 77.8%
Second compound 0.316 µM, first compound 0.01 µM
  viability, T/C: 111%
[10]
  viability, T/C: 73.1%
[11]
  viability, T/C: 38.8%
[12]
  viability, T/C: 37.7%
[13]
  viability, T/C: 34.5%
Second compound 1 µM, first compound 0.00316 µM
  viability, T/C: 79.6%
Second compound 1 µM, first compound 0.01 µM
  viability, T/C: 99.2%
[14]
  viability, T/C: 69.9%
[15]
  viability, T/C: 51.8%
[16]
  viability, T/C: 44%
[17]
  viability, T/C: 34%
Second compound 3.16 µM, first compound 0.00316 µM
  viability, T/C: 91.1%
Second compound 3.16 µM, first compound 0.01 µM
  viability, T/C: 74.4%
[18]
  viability, T/C: 61%
[19]
  viability, T/C: 42.2%
[20]
  viability, T/C: 41.3%
[21]
  viability, T/C: 34%
Second compound 10 µM, first compound 0.00316 µM
  viability, T/C: 54.7%
Second compound 10 µM, first compound 0.01 µM
  viability, T/C: 61.4%
[22]
  viability, T/C: 53.9%
[23]
  viability, T/C: 42.8%
[24]
  viability, T/C: 37.2%
[25]
  viability, T/C: 29.5%
